We go through 18 compounds from patent US10399948B2, “Negative allosteric modulators of metabotropic glutamate receptor 3” (Vanderbilt University, priority 2015, dated 2019).

The subject of assay [1] is Helpless (H) mice. The settings on record: cited from earlier work.
For assay [2], the system named is group II mGlu receptors (mGlu2 and mGlu3). The settings on record: cited from earlier work.
Assay [3] has as its system Aβ-induced neurodegeneration. To be noted: cited from earlier work.
Assay [4] has as its system rat. The settings on record: normal animals; cited from earlier work.
Assay [5] has as its system olfactory bulbectomized rats. To be noted: repeated administration for 14 days; cited from earlier work.
Assay [6] deals with social isolation-reared mice. To be noted: cited from earlier work.
For assay [7], the system named is mouse. The settings on record: normal animals; cited from earlier work.
The conditions of assay [8]: in vivo; cited from earlier work.
The conditions of assay [9]: cited from earlier work.
In assay [10] the test system is mice. To be noted: cited from earlier work.
Assay [11] addresses rat mGlu3 (Rattus norvegicus (Rat), UniProt P31422). Put plainly: mGlu3 Ca2+ flux assay. Format: cell-based. To be noted: for IC50: NAM, glutamate EC80, >10,000 = decrease without plateau, >30,000 = no measurable activity; for remaining activity at 30 µM: response at 30 μM test compound as percentage of maximal response to glutamate, read-out: rat mGlu3 Glu max (%). In general terms: A change in cytosolic calcium serves as a functional read-out for many receptors and channels.

Assay [12] concerns the target rat mGlu5 (Rattus norvegicus (Rat), UniProt P31424). Put plainly: mGlu5 Ca2+ flux assay. It is filed as cell-based. To be noted: for activity at 30 µM: read-out: rat mGlu5 Glu max (%). The method, then: HEK 293A cells stably expressing rat mGlu5 were plated in black-walled, clear-bottomed, poly-D-lysine coated 384-well plates in 20 μL of assay medium (DMEM containing 10% dialyzed FBS, 20 mM HEPES, 100 units/mL penicillin/streptomycin plus 250 ng/mL Fungizone, and 1 mM sodium pyruvate) at a density of 20K cells/well. The cells were grown overnight at 37° C. in the presence of 5% CO2. The next day, medium was removed and the cells incubated with 20 μL of […] Fluo-4, AM prepared as a 2.3 mM stock in DMSO and mixed in a 1:1 ratio with 10% (w/v) pluronic acid F-127 and diluted in assay buffer (Hank's balanced salt solution, 20 mM HEPES, and 2.5 mM probenecid) for 45 minutes at 37° C. Dye was removed, 20 μL of assay buffer was added, and the plate was incubated for 5 minutes at room temperature.
Ca^2+ flux was measured using the Functional Drug Screening System (FDSS7000, Hamamatsu, Japan). After establishment of a fluorescence baseline for about 3 seconds, the compounds of the present invention were added to the cells, and the response in cells was measured. 2.3 minutes later an EC20 concentration of the mGlu5 receptor agonist glutamate was added to the cells, and the response of the cells was measured for 1.9 minutes; an EC80 concentration of agonist was added and readings taken for an additional 1.7 minutes. All test compounds were dissolved and diluted to a concentration of 10 mM in 100% DMSO. Compounds were then serially diluted 1:3 in DMSO into 10 point concentration response curves, transferred to daughter plates, and further diluted into assay buffer to a 2× stock. Calcium fluorescence measures were recorded as fold over basal fluorescence; raw data was then normalized to the maximal response to glutamate.
The raw data file containing all time points was used as the data source in the analysis template. This was saved by the FDSS as a tab-delimited text file. Data were normalized using a static ratio function (F/F0) for each measurement of the total 360 values per well divided by each well's initial value. Data were then reduced to peak amplitudes (Max−Initial Min) using a time range that starts approximately 3 seconds prior to the glutamate EC20/EC80 addition and continues for approximately 90-120 seconds. This is sufficient time to capture the peak amplitude of the cellular calcium response. Individual amplitudes were expressed as % EMax by multiplying each amplitude by 100 and then dividing the product by the mean of the amplitudes derived from the glutamate ECMax-treated wells. EC50 values for test compounds were generated by fitting the normalized values versus the log of the test compound concentration (in mol/L) using a 4 parameter logistic equation where none of the parameters were fixed. Each of the three values collected at each concentration of test compound were weighted evenly.

The target of assay [13] is rat mGlu2 (Rattus norvegicus (Rat), UniProt P31421). Put plainly: mGlu2 Ca2+ flux assay. Format: cell-based. To be noted: NAM, glutamate EC80; >30,000 = no measurable activity.
Assay [14] has as its system central mGlu2 and mGlu3 receptors. To be noted: in vivo; cited from earlier work.
Assay [15] concerns C57Bl6/J mice. To be noted: FST; cited from earlier work.
The mark [16] stands for this setting: PAM, glutamate EC20, >10,000 = no plateau, >30,000 = no measurable activity, read-out: rat mGlu5 EC50 or IC50.
Setting [17] is: PAM, response at 30 μM test compound as percentage of maximal response to glutamate.

Where two headings read alike, the source gives them in different places.

Sequence of rat mGlu2 (P31421 19-872): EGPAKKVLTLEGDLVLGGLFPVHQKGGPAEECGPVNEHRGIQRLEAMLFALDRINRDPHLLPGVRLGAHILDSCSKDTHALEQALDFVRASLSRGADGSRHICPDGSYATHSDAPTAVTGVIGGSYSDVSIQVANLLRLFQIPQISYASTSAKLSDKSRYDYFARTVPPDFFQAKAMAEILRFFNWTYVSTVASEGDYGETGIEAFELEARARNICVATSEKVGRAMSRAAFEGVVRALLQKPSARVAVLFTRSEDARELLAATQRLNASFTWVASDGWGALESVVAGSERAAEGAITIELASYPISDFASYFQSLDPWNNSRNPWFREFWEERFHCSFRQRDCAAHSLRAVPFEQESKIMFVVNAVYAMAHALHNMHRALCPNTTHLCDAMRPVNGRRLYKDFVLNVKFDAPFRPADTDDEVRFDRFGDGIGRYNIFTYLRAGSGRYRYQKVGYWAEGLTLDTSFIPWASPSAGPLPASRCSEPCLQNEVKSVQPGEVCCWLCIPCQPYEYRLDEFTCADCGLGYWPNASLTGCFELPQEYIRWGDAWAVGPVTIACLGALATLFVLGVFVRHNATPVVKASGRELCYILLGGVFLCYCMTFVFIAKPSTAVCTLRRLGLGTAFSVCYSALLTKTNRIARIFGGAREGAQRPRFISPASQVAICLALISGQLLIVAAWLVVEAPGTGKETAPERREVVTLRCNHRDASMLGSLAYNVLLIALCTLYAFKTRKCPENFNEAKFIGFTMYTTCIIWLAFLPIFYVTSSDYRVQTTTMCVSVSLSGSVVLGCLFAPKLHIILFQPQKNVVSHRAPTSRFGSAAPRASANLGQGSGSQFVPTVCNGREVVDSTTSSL
Sequence of rat mGlu3 (P31422 23-879): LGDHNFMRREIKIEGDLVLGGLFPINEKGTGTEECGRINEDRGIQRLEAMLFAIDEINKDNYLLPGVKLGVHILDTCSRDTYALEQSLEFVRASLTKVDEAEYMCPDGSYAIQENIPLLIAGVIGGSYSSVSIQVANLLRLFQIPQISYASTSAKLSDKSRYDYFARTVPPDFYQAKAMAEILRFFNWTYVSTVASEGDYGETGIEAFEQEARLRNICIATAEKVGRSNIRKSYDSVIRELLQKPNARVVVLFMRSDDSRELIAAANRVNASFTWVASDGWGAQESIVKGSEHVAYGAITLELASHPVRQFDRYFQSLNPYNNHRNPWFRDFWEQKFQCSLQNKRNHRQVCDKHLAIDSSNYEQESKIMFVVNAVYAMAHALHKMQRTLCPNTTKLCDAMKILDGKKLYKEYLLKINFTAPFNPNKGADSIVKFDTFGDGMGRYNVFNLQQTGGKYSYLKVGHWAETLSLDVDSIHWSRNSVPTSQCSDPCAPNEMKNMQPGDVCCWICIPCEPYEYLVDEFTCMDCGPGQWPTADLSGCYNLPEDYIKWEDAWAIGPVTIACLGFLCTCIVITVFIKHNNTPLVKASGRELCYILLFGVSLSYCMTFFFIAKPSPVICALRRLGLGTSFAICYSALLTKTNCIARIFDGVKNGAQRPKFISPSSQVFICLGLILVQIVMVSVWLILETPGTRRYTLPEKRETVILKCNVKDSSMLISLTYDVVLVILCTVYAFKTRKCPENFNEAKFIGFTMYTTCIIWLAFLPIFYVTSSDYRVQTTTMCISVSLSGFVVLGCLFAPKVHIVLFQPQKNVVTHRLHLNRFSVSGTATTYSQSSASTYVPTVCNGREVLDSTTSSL
Sequence of rat mGlu5 (P31424 21-1203): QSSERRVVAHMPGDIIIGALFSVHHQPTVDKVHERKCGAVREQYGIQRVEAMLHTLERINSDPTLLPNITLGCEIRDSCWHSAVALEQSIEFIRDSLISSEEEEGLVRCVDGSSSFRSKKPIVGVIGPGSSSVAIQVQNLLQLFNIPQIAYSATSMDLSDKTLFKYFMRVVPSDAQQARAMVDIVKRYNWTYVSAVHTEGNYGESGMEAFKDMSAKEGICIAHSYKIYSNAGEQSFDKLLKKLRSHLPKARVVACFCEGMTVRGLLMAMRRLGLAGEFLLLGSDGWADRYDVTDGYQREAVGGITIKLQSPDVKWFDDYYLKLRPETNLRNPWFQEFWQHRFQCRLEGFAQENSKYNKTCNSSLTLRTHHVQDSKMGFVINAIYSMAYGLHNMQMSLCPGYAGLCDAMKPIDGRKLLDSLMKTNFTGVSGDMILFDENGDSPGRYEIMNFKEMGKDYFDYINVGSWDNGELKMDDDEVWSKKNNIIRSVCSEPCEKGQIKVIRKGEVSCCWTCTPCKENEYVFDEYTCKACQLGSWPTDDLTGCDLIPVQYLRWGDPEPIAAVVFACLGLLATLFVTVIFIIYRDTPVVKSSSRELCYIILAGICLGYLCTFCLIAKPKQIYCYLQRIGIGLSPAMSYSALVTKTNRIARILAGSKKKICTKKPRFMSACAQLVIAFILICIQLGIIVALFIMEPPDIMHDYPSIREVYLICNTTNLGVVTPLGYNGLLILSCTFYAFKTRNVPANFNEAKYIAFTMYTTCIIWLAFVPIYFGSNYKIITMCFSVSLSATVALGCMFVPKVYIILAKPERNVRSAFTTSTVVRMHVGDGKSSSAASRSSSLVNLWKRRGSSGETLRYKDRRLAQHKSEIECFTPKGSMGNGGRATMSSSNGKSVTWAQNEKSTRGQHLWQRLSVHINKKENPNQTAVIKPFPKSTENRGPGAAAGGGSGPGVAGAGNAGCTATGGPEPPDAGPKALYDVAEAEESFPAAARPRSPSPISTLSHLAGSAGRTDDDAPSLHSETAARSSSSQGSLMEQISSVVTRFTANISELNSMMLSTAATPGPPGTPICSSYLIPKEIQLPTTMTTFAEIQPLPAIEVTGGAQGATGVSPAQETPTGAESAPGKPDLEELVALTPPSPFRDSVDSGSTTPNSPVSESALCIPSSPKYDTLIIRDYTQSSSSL

For `CNCCC(Oc1ccc(C(F)(F)F)cc1)c1ccccc1` (centres unmarked) [fluoxetine], the “antidepressant effect in helpless mice” value in [1] (chronic (21 days) treatment) is recorded as “full antidepressant effect”.

As to `CCCCCCCOC(=O)[C@@]1(F)[C@@H]2C[C@@H](OCc3ccc(Cl)c(Cl)c3)[C@@](N)(C(=O)O)[C@@H]21` [BCI-838], the “duration of inhibition of group II mGlu receptors” value in assay [2] (once-daily oral dosing, brain concentration of active metabolite BCI-632) is 22 h. In assay [2] (three months of treatment), the “Dutch APP transgene-associated learning and memory impairment” value is on record as “reversed”; the anxiolytic effects result is “anxiolytic effects”; the “levels of monomeric and oAβ peptides in the hippocampus and cortex” value is “decreased”. The “hippocampal progenitor cell proliferation” value in [2] (wild-type and Alzheimer's diseased mice, 3 months) is recorded as “stimulated”.

For the compound `CCS(=O)(=O)N(Cc1cccnc1)c1cccc(-c2ccc(C#N)cc2)c1` [LY566332], in assay [3], the Aβ-induced neurodegeneration result is “amplified”.

With `N[C@]1(C(=O)O)[C@H]2[C@@H](C[C@H]1OCc1ccc(Cl)c(Cl)c1)[C@]2(F)C(=O)O` [MGS0039], the antidepressant-like effects result in [4] is “Antidepressant-like effects”. For the same compound, in [5], the “hyperactivity in the open field test” value was “attenuated” and the “learning deficit in the passive avoidance test” value was “attenuated”. Also, the “increased immobility in the FST” value in assay [6] is given as “reversed”. Besides, in [7], the antidepressant-like effects result was “Antidepressant-like effects”. In addition, the freezing behavior entry in [8] is reported as “significantly decreased”. For the same compound, the antidepressant effects result in assay [9] (learned helplessness test/paradigm) was “antidepressant effects”. Further, the “number of escape failures” value in assay [9] (treatment for 7 days) is “significantly reduced”. For the same compound, in [10], the marble-burying behavior entry is “reduced marble-burying behavior in a significant and dose dependent manner”; the spontaneous locomotor activity result is “no significant change”.

Turning to `O=c1cc(OCCOc2ccc(F)nc2)ccn1-c1ccc(F)cc1` [Compound 45, 1-(4-fluorophenyl)-4-(2-((6-fluoropyridin-3-yl)oxy)ethoxy)pyridin-2(1H)-one], the IC50 (in general, the point on the concentration scale where inhibition reaches its midpoint) in [11] is 701 nM; in [13] it was > 30000 nM. Moreover, the remaining activity at 30 µM in assay [11] is 0.88%. In addition, the EC50 (usually the concentration at which the effect is half-maximal) in assay [12] (setting [16]) was > 10000 nM. The activity at 30 µM in [12] (setting [17]) is 35.5%.

As for `O=c1cc(OCCOc2ccc(F)cc2)ccn1-c1ccc(F)cc1` [Compound 32, 4-(2-(4-fluorophenoxy)ethoxy)-1-(4-fluorophenyl)pyridin-2(1H)-one], in assay [11], it took 1050 nM to reach half-maximal inhibition (IC50) and the remaining activity at 30 µM was -0.56%. Further, in assay [12] (setting [16]), the EC50 is 1500 nM. In assay [12] (setting [17]), the activity at 30 µM was 94.1%. The IC50 in assay [13] is > 30000 nM.

As to `N#Cc1cc(F)cc(-n2ccc(OCCOc3ccccc3)cc2=O)c1` [Compound 23, 3-fluoro-5-(2-oxo-4-(2-phenoxyethoxy)pyridin-1(2H)-yl)benzonitrile], in assay [11], 522 nM corresponded to half-maximal inhibition (IC50) and the remaining activity at 30 µM was 3.44%. For the same compound, the EC50 in assay [12] (setting [16]) turned out to be 1310 nM. The activity at 30 µM in assay [12] (setting [17]) is 26.8%. In addition, the IC50 in assay [13] is > 30000 nM.

For the compound `N#Cc1ccnc(OCCOc2ccn(-c3ccc(F)cc3)c(=O)c2)c1` [Compound 57, 2-(2-((1-(4-fluorophenyl)-2-oxo-1,2-dihydropyridin-4-yl)oxy)ethoxy)isonicotinonitrile], the IC50 is 753 nM in [11] and > 30000 nM in assay [13]. In addition, in assay [11], the remaining activity at 30 µM is -0.4%. Further, in assay [12] (setting [16]), the EC50 is > 10000 nM. In addition, in assay [12] (setting [17]), the activity at 30 µM came to 38.7%.

As for `N#Cc1cccc(-n2ccc(OCCOc3ccccc3)cc2=O)c1` [Compound 22, 3-(2-oxo-4-(2-phenoxyethoxy)pyridin-1(2H)-yl)benzonitrile], in [11], inhibition was half-maximal at 559 nM (IC50) and the remaining activity at 30 µM stood at 1.16%. Also, in assay [12] (setting [16]), the EC50 amounted to 6020 nM. In assay [12] (setting [17]), the activity at 30 µM was 87%. Moreover, in assay [13], the IC50 was > 30000 nM.

Consider `O=c1cc(OCCOc2ccccc2)ccn1-c1ccc(F)c(F)c1` [Compound 20, 1-(3,4-difluorophenyl)-4-(2-phenoxyethoxy)pyridin-2(1H)-one], for which, in assay [11], the IC50 was determined as 323 nM and the remaining activity at 30 µM is 1.63%. Besides, in [12], the EC50 was found to be 344 nM. Moreover, the activity at 30 µM in [12] (setting [17]) turned out to be 91%. Further, the IC50 in assay [13] is > 30000 nM.

Regarding `CN1C(=O)CN=C(c2ccccc2)c2cc(Cl)ccc21` [diazepam], the freezing behavior entry in assay [8] is on record as “significantly decreased”.

As for `CC(COc1ccn(-c2ccc(F)cc2)c(=O)c1)Oc1ccccc1` (centres unmarked) [Compound 1, 1-(4-Fluorophenyl)-4-(2-phenoxypropoxy)pyridin-2(1H)-one], in assay [11], the IC50 worked out at 728 nM and the remaining activity at 30 µM worked out at 0.69%. The EC50 in [12] (setting [16]) is > 30000 nM. Moreover, the half-inhibitory concentration (IC50) in assay [13] was > 30000 nM.

On to `Cc1cc(-c2cccc(C3=Nc4cc(C)c(C(F)(F)F)cc4NC(=O)C3)c2)cc(C)n1` [RO4491533], for which the “activity in the tail suspension test” value in [1] (Helpless (H) mice) is recorded as “active”. Further, the “hypolocomotor effect of mGlu2/3 agonist LY379268” value in assay [14] is listed as “reversed”. Further, in assay [15], the immobility time entry is “dose-dependently reduced”.

As for `O=c1nc(OCCOc2ccccc2)ccn1-c1ccc(F)cc1` [Compound 17, 1-(4-Fluorophenyl)-4-(2-phenoxyethoxy)pyrimidin-2(1H)-one], the IC50 was 211 nM in assay [11] and > 30000 nM in assay [13]. Besides, the remaining activity at 30 µM in assay [11] is 1.84%. The EC50 in [12] (setting [16]) turned out to be 1190 nM. Besides, in assay [12] (setting [17]), the activity at 30 µM came to 96.8%.

For the compound `O=c1nc(OCCOc2ccccc2)ccn1-c1ccc(F)c(F)c1` [Compound 15, 1-(3,4-difluorophenyl)-4-(2-phenoxyethoxy)pyrimidin-2(1H)-one], in assay [11], the IC50 stood at 219 nM and the remaining activity at 30 µM came to 2.44%. Besides, the EC50 in assay [12] (setting [16]) worked out at 427 nM. Besides, in assay [12] (setting [17]), the activity at 30 µM amounted to 83%. In addition, the IC50 in [13] is > 30000 nM.

On to `O=c1cc(OCCOc2ccccc2)ccn1-c1ccc(F)cc1` [Compound 18, 1-(4-Fluorophenyl)-4-(2-phenoxyethoxy)pyridin-2(1H)-one], for which, in assay [11], the IC50 came to 725 ± 227 nM and the remaining activity at 30 µM came to 1.45 ± 0.14%. Also, in assay [12], the EC50 worked out at 567 nM. Besides, the activity at 30 µM in [12] (setting [17]) is 97.3%. For the same compound, the IC50 in assay [13] is > 30000 nM.

Turning to `N#Cc1cccc(OCCOc2ccn(-c3ccc(F)cc3)c(=O)c2)c1` [Compound 41, 3-(2-((1-(4-fluorophenyl)-2-oxo-1,2-dihydropyridin-4-yl)oxy)ethoxy)benzonitrile], the IC50 in [11] was 715 nM; in [12] (noted as weak NAM, glutamate EC80, read-out: rat mGlu5 EC50 or IC50), > 10000 nM; in assay [13], > 30000 nM. Besides, in assay [11], the remaining activity at 30 µM is 0.13%. Further, the activity at 30 µM in assay [12] (noted as weak NAM, response at 30 μM test compound) amounted to 29.1%.

On to `O=c1cc(OCCOc2cccc(F)c2F)ccn1-c1ccc(F)cc1` [Compound 33, 4-(2-(2,3-difluorophenoxy)ethoxy)-1-(4-fluorophenyl)pyridin-2(1H)-one], for which the IC50 is 917 nM in assay [11] and > 30000 nM in assay [13]. The remaining activity at 30 µM in assay [11] was -0.23%. Moreover, in [12] (setting [16]), the EC50 stood at 6850 nM. The activity at 30 µM in assay [12] (setting [17]) was found to be 94.1%.
